Measurements: patent publication US20170197935A1, “INHIBITORS OF DNA GYRASE FOR THE TREATMENT OF BACTERIAL INFECTIONS” (Vitas Pharma Research Private Limited, priority 2012, published 2017)
In brackets after ≈: the same amount, converted by molar mass.

How the values were obtained:
[1] = tested on: Streptococcus pneumoniae (ATCC 6301); experiment: MIC by microbroth dilution, Streptococcus pneumoniae ATCC 6301; format: cell-based; settings: ATCC6301
Experimental: (§1) Shown below are the microbiological activities of representative compounds of Formula I of the invention. The compounds were tested by the microbroth dilution method (National committee for Clinical Laboratory Standards, 2011, […]-08) and the Minimum Inhibitory Concentration (MIC) was determined.

[2] = tested on: Staphylococcus aureus (ATCC 29213); experiment: MIC by microbroth dilution, Staphylococcus aureus ATCC 29213; format: cell-based; settings: ATCC29213
Experimental: as §1

[3] = tested on: Methicillin resistant Staphylococcus aureus (ATCC 33591); experiment: MIC by microbroth dilution, MRSA ATCC 33591; format: cell-based; settings: ATCC33591, Formula I compounds, read-out: MIC Methicillin resistant Staphylococcus aureus (ATCC 33591)
Experimental: (§2) Shown below are the microbiological activities of representative compounds of Formula I of the invention. The compounds were tested by the microbroth dilution method (National committee for Clinical Laboratory Standards, 2011, M07-08) and the Minimum Inhibitory Concentration (MIC) was determined.
(§3) Analysis of microbiological activity of compounds shown below are the microbiological activities of representative compounds of Formula II of the invention. The compounds were tested by the microbroth dilution method as per the reference in Example 1.

E. coli (ATCC 25922) = experiment: MIC by microbroth dilution, E. coli ATCC 25922; format: cell-based; settings: Escherichia coli, ATCC25922, Formula I compounds, read-out: MIC E. coli (ATCC 25922)
Experimental: as §2, §3

[4] = tested on: K. pneumoniae (ATCC 700603); experiment: MIC by microbroth dilution, K. pneumoniae ATCC 700603; format: cell-based; settings: Klebsiella pneumoniae, ATCC700603, Formula I compounds
Experimental: as §2, §3

[5] = tested on: Moraxella catarrhalis (ATCC 8176); experiment: MIC by microbroth dilution, Moraxella catarrhalis ATCC 8176; format: cell-based; settings: ATCC8176
Experimental: as §1

[6] = tested on: Enterococcus faecalis (ATCC 29212); experiment: MIC by microbroth dilution, Enterococcus faecalis ATCC 29212; format: cell-based; settings: ATCC29212
Experimental: as §1

E. coli Gyrase = biological target: T1, E. coli Gyrase (Escherichia coli, UniProt P0AES4+P0AES6); experiment: in vitro Gyrase supercoiling assay (Inspiralis kit); format: biochemical; settings: 1 hour at 37° C., read-out: % inhibition of DNA supercoiling activity; for inhibition at 0.1 µM: 0.1 μM compound; for inhibition at 1 µM: 1 μM compound
T1 construct: purchased Inspiralis
Experimental: To test for target specificity, the activity of compounds was evaluated in an in vitro Gyrase assay using recombinant Gyrase protein as per the instructions of the assay kit (Inspiralis). The assay measures the ability of E. coli Gyrase to convert relaxed plasmid DNA into the supercoiled form. The enzyme is incubated with the substrate (relaxed DNA) in the presence and absence of compounds for 1 hour at 37° C. and the DNA is run on a gel at low voltage for several hours. The gel is then stained with Ethidium bromide and DNA in the different forms is quantified using DNA imaging and quantification software (Image Lab). The activity of the enzyme is proportional to the amount of supercoiled form detected.

T1 sequence (P0AES4 whole entry, one chain of several): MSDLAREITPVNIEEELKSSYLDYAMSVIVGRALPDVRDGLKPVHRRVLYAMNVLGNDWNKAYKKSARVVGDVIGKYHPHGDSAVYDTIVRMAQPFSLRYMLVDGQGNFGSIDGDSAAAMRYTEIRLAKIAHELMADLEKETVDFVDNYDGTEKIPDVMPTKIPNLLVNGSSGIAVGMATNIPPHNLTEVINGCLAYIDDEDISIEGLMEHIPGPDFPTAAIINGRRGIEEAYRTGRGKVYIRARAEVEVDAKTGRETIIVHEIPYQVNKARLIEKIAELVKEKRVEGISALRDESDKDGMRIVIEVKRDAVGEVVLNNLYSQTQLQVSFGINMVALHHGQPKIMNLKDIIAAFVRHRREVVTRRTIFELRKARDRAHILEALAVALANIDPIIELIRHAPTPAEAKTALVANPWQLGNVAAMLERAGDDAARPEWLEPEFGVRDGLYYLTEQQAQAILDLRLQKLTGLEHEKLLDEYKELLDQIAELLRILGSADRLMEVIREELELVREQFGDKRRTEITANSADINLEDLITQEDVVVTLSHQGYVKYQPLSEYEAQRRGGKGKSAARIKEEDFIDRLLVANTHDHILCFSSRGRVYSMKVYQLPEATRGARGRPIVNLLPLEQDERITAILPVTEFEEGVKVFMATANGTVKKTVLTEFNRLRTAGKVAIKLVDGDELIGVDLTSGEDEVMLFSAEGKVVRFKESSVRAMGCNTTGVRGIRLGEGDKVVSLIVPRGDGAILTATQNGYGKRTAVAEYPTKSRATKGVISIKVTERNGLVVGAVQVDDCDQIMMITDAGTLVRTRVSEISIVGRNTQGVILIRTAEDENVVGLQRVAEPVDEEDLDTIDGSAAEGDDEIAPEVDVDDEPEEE

Row | SMILES | MIC [1] | MIC [2] | MIC [3] | MIC (E. coli (ATCC 25922)) | MIC [4] | MIC [5] | MIC [6] | inhibition at 0.1 µM (E. coli Gyrase) | inhibition at 1 µM (E. coli Gyrase)
1 | COc1ccc2ncc(C#N)c(CCN3C4CCC3CC(NCc3cc5c(cn3)OCS5)C4)c2c1 (stereo not shown) [VT-03-00014] | 2 µg/mL (≈ 4.1 µM) | 2 µg/mL (≈ 4.1 µM) | 4 µg/mL (≈ 8.2 µM) | 32 µg/mL (≈ 65.6 µM) | > 128 µg/mL | 4 µg/mL (≈ 8.2 µM) | 4 µg/mL (≈ 8.2 µM) |  | 
2 | COc1ccc2ncc(C#N)c(CCN3C4CCC3CC(NS(=O)(=O)c3ccc5c(c3)OCCO5)C4)c2c1 (stereo not shown) [VT-03-00021] | 1 µg/mL (≈ 1.87 µM) | 0.25 µg/mL (≈ 0.468 µM) | 0.12 µg/mL (≈ 0.224 µM) | 16 µg/mL (≈ 29.9 µM) | > 32 µg/mL | 2 µg/mL (≈ 3.74 µM) | 2 µg/mL (≈ 3.74 µM) |  | 
3 | COc1ccc2ncc(C#N)c(CCN3C4CCC3CC(NCc3ccc5c(c3)NC(=O)CS5)C4)c2c1 (stereo not shown) [VT-03-00026] | 1 µg/mL (≈ 1.95 µM) | 2 µg/mL (≈ 3.89 µM) | 4 µg/mL (≈ 7.79 µM) | 32 µg/mL (≈ 62.3 µM) | 64 µg/mL (≈ 125 µM) | 2 µg/mL (≈ 3.89 µM) | 8 µg/mL (≈ 15.6 µM) |  | 
4 | COc1ccc2ncc(C#N)c(CCN3C[C@@H]4C[C@H]3CN4CNc3ccc4c(c3)OCCO4)c2c1 [VT-03-00028] | 0.25 µg/mL (≈ 0.53 µM) | 0.25 µg/mL (≈ 0.53 µM) | 0.5 µg/mL (≈ 1.06 µM) | > 32 µg/mL | > 32 µg/mL | 4 µg/mL (≈ 8.48 µM) | 1 µg/mL (≈ 2.12 µM) |  | 
5 | COc1ccc2ncc(C#N)c(CCN3C4CCC3CC(NCc3ccc5c(c3)NC(=O)CO5)C4)c2c1 (stereo not shown) [VT-03-00030] | 4 µg/mL (≈ 8.04 µM) | 2 µg/mL (≈ 4.02 µM) | 4 µg/mL (≈ 8.04 µM) | 8 µg/mL (≈ 16.1 µM) | > 32 µg/mL | 1 µg/mL (≈ 2.01 µM) | 4 µg/mL (≈ 8.04 µM) |  | 
6 | COc1ccc2ncc(C#N)c(CCN3C4CCC3CC(NCc3cc5c(cc3F)OCCO5)C4)c2c1 (stereo not shown) [VT-03-00031] | 1 µg/mL (≈ 1.99 µM) | 1 µg/mL (≈ 1.99 µM) | 2 µg/mL (≈ 3.98 µM) | 16 µg/mL (≈ 31.8 µM) | > 32 µg/mL | 4 µg/mL (≈ 7.96 µM) | 2 µg/mL (≈ 3.98 µM) |  | 
7 | COc1ccc2ncc(C#N)c(N3CC(N4CCC(NCc5ccc6c(c5)OCCO6)CC4)C3)c2c1 [VT-03-00032] | 4 µg/mL (≈ 8.24 µM) | 2 µg/mL (≈ 4.12 µM) | 4 µg/mL (≈ 8.24 µM) | > 32 µg/mL | > 32 µg/mL | 8 µg/mL (≈ 16.5 µM) | 8 µg/mL (≈ 16.5 µM) |  | 
8 | COc1ccc2ncc(C#N)c(CCN3CCC(NCc4ccc([N+](=O)[O-])cc4)CC3)c2c1 [VT-03-00045] | 0.5 µg/mL (≈ 1.12 µM) | 0.06 µg/mL (≈ 0.135 µM) | 0.12 µg/mL (≈ 0.269 µM) | 32 µg/mL (≈ 71.8 µM) |  | 2 µg/mL (≈ 4.49 µM) | 4 µg/mL (≈ 8.98 µM) | 96.5% | 96.5%
9 | COc1ccc2ncc(C#N)c(CCN3CCC(NCc4ccc(F)c([N+](=O)[O-])c4)CC3)c2c1 [VT-03-00048] | 0.5 µg/mL (≈ 1.08 µM) | 0.12 µg/mL (≈ 0.259 µM) | 0.5 µg/mL (≈ 1.08 µM) | 8 µg/mL (≈ 17.3 µM) | > 32 µg/mL | 1 µg/mL (≈ 2.16 µM) | 4 µg/mL (≈ 8.63 µM) | 97.5% | 97.3%
10 | COc1ccc2ncc(C#N)c(CCN3CCC(NCc4cccc([N+](=O)[O-])c4)CC3)c2c1 [VT-03-00049] | 0.5 µg/mL (≈ 1.12 µM) | 0.12 µg/mL (≈ 0.269 µM) | 0.5 µg/mL (≈ 1.12 µM) | 32 µg/mL (≈ 71.8 µM) | > 32 µg/mL | 8 µg/mL (≈ 18 µM) | 2 µg/mL (≈ 4.49 µM) |  | 
11 | COc1ccc2ncc(C#N)c(CCN3CCC(NCc4cc([N+](=O)[O-])ccc4F)CC3)c2c1 [VT-03-00050] | 4 µg/mL (≈ 8.63 µM) | 0.25 µg/mL (≈ 0.539 µM) | 0.5 µg/mL (≈ 1.08 µM) | 16 µg/mL (≈ 34.5 µM) | > 16 µg/mL | 4 µg/mL (≈ 8.63 µM) | 4 µg/mL (≈ 8.63 µM) |  | 
12 | COc1ccc2ncc(C#N)c(CCN3CCC(NCc4ccc([N+](=O)[O-])o4)CC3)c2c1 [VT-03-00051] | > 4 µg/mL | 2 µg/mL (≈ 4.59 µM) | 4 µg/mL (≈ 9.19 µM) | > 32 µg/mL | > 16 µg/mL | 2 µg/mL (≈ 4.59 µM) | 4 µg/mL (≈ 9.19 µM) |  | 
13 | COc1ccc2ncc(C#N)c(CCN3CCC(NCc4ccc([N+](=O)[O-])c(F)c4)CC3)c2c1 [VT-03-00054] | 0.5 µg/mL (≈ 1.08 µM) | 0.03 µg/mL (≈ 0.0647 µM) | 0.12 µg/mL (≈ 0.259 µM) | 8 µg/mL (≈ 17.3 µM) | 32 µg/mL (≈ 69 µM) | 1 µg/mL (≈ 2.16 µM) | 2 µg/mL (≈ 4.31 µM) |  | 
14 | COc1ccc2ncc(C#N)c(CCN3CCC(NC(=O)c4ccc([N+](=O)[O-])c(F)c4)CC3)c2c1 [VT-03-00055] | 0.03 µg/mL (≈ 0.0628 µM) | 1 µg/mL (≈ 2.09 µM) | 4 µg/mL (≈ 8.38 µM) | > 32 µg/mL | > 32 µg/mL | > 32 µg/mL | 0.25 µg/mL (≈ 0.524 µM) | 52.7% | 71%
